According to US10947274B1 (priority 2018, dated 2021):
Where a SMILES comes first, the peptide text is derived from it. Bridges are numbered along the chain shown (N, C = ends). [ ]: non-standard residue; d: D form. Sec = N[C@@H](C[SeH])C(=O)O

Tests used:
rat α9α10 nAChR = rat α9α10 nAChR (Rattus norvegicus, UniProt P43144+Q9JLB5); test: cell-based
α3β4 nAChR = α3β4 nAChR (Rattus norvegicus, UniProt P04757+P12392); details: cited from earlier work
Sequence of α3β4 nAChR (P04757 26-499 limits assumed): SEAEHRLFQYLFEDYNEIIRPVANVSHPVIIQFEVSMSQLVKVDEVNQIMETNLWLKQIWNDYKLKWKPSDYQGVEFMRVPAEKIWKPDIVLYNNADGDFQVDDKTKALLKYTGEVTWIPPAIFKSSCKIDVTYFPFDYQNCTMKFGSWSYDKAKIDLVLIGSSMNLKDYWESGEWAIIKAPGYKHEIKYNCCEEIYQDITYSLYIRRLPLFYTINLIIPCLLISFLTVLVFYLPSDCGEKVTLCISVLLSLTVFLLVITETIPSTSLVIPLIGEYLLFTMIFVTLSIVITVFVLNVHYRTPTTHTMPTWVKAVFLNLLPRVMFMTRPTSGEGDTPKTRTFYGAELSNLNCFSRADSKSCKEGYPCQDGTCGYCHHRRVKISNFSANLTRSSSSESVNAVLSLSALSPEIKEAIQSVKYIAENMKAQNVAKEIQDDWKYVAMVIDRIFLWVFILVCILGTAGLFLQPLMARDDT
Sequence of α3β4 nAChR (P12392 21-495 limits assumed): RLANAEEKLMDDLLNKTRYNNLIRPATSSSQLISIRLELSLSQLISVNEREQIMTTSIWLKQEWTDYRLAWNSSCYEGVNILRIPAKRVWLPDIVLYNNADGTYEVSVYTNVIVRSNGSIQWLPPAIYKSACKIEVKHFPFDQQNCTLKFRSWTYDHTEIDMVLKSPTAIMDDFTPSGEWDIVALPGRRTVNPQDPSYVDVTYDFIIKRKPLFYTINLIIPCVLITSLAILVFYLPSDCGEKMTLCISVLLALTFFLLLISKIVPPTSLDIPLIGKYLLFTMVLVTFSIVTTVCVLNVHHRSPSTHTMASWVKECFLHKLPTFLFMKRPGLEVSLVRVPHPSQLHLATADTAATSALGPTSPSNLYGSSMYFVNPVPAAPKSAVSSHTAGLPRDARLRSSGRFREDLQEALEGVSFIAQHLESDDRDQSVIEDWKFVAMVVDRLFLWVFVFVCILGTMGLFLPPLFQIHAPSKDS

Sequence of rat α9α10 nAChR (P43144 26-479 limits assumed): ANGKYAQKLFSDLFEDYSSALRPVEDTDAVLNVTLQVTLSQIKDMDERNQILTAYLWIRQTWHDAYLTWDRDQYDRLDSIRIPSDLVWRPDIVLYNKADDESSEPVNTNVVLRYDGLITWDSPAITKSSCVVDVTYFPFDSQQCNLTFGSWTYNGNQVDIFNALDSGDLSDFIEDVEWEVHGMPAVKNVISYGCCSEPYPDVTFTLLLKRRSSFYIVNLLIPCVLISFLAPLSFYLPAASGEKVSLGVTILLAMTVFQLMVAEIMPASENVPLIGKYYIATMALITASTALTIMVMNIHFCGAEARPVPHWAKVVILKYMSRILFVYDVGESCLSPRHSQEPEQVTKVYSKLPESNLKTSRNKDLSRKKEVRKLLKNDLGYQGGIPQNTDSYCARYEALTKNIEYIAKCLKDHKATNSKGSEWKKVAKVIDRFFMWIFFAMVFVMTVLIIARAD
Sequence of rat α9α10 nAChR (Q9JLB5 25-447 limits assumed): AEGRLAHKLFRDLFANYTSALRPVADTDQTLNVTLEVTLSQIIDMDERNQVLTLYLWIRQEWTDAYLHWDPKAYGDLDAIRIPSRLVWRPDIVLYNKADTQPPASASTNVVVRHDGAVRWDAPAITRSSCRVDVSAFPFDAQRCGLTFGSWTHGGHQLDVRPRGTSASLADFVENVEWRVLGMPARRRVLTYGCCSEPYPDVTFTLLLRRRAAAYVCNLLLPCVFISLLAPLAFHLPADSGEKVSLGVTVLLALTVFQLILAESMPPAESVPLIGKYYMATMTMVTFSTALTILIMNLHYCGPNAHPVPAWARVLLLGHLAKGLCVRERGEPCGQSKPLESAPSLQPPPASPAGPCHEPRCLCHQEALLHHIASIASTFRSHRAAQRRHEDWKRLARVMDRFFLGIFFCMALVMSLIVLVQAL

Compound | % block (rat α9α10 nAChR) | IC50 (rat α9α10 nAChR) [µM] | IC50 (α3β4 nAChR) [µM]
N=C(N)NCCC[C@H](NC(=O)[C@@H]1C[Se][Se]C[C@@H]2NC(=O)[C@@H](NC(=O)CN)CSSC[C@H](NC(=O)[C@H](CCCNC(=N)N)NC(=O)[C@@H]3CCCN3C(=O)[C@H](CC(=O)O)NC(=O)[C@H](CO)NC2=O)C(=O)N[C@@H](CCCNC(=N)N)C(=O)N[C@@H](Cc2ccc(O)cc2)C(=O)N[C@@H](CCCNC(=N)N)C(=O)N1)C(=O)O [[C3 Sec;C12Sec] RgIA] (H-GC[Sec]SDPRCRYR[Sec]R-OH; disulfide 2-8; diselenide 3-12) | <10 nM (81.9 ± 1.8% block at 10 nM) | < 0.01 | 
α-conotoxin AuIB |  |  | 3.1 ± 1
